The values that follow come from patent US6545029B2, “Phenylserine derivatives as integrin antagonists” (Bayer Aktiengesellschaft, priority 2000, dated 2003).

As a reminder, the Ki is the equilibrium dissociation constant of an inhibitor or competing ligand from its target.

The experiment deals with T1, αvβ3 from human placenta (Homo sapiens, UniProt P05106+P06756).
T1 construct: αvβ3 from human placenta; from tissue; host or cells: human placenta
Nature of the experiment: αvβ3/echistatin binding inhibition (I125-echistatin, scintillation proximity beads). Conditions: inhibition of I125-echistatin binding to αvβ3; 1 hour at room temperature; determined in duplicate from concentration series. How it is done: The substances were tested for their ability to inhibit αvβ3/echistatin binding analogously to Kumar C. C., Nie H. M., Rogers G. P., Malkowski M., Maxwell E., Catino J. J. and Armstrong L. (Journal of Pharmacology and Experimental Therapeutics 283(2)(1997)843-853).
αvβ3 from human placenta (Smith J. W. and Cheresh, D. A. (1988), J. Biol. Chem. 263, 18726-18732) (1 mg/ml 50 mM tris HCl pH 7.4, 100 mM NaCl, 2 mM CaCl2, 1% and octylglucoside) was diluted with test buffer (50 mM tris-HCl pH 7.4, 100 mM NaCl, 1 mM CaCl2, 1 mM MgCl2, 1 mM MnCl2, 0.1% bovine serum albumin) and 55 μl each of this αvβ3 solution were added to the wells of a 96-well microtiter plate (about 0.1-0.3 μg of αvβ3 per well). 2 μl of the substances to be tested dissolved in DMSO were then added. 10 μl (40,000 cpm) of I^125-echistatin per well were then added and the mixture was incubated for 1 hour at room temperature with careful shaking. It was then treated with 100 μg of wheatgerm-coated yttrium silicate beads (Amersham, type RPNQ0011) in 25 μl of distilled water. After 1 hour at room temperature, the cpm values were measured in a scintillation counter. The Ki values were determined in duplicate from concentration series. The nonspecific binding was determined in the presence of 0.1 μM unlabeled echistatin or by addition of 5 mM EDTA to the binding mixture.
(In general: SPA uses beads or plates that emit light when radiolabelled molecules are held near them.)

T1 sequence (P06756 31-889 limits assumed): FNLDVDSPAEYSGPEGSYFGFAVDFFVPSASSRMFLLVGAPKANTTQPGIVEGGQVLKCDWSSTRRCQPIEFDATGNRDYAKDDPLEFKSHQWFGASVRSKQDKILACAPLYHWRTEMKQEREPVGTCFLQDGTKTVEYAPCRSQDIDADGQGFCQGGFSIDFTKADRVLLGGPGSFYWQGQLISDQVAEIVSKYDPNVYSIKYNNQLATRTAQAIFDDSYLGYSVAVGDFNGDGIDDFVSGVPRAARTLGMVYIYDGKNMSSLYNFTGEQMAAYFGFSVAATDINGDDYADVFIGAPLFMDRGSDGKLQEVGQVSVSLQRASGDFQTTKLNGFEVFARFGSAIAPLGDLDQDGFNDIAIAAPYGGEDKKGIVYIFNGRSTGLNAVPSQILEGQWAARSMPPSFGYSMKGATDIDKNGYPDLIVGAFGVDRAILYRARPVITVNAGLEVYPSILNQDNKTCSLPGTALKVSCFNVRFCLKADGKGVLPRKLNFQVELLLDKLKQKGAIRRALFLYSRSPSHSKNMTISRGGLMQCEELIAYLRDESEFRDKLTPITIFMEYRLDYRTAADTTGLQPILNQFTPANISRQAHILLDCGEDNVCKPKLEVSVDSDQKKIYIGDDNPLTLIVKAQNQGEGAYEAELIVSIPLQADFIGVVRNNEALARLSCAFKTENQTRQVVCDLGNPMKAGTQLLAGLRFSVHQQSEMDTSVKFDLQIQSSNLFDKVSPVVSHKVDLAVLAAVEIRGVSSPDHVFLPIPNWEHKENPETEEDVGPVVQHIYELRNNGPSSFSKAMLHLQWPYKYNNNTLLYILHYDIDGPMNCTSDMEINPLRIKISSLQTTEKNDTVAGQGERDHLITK
T1 sequence (P06756 891-1048 partner limits assumed): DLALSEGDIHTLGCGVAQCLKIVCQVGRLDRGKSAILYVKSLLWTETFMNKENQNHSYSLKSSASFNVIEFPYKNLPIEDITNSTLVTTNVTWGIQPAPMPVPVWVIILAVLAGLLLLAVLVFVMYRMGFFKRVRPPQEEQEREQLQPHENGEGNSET
T1 sequence (P05106 27-788): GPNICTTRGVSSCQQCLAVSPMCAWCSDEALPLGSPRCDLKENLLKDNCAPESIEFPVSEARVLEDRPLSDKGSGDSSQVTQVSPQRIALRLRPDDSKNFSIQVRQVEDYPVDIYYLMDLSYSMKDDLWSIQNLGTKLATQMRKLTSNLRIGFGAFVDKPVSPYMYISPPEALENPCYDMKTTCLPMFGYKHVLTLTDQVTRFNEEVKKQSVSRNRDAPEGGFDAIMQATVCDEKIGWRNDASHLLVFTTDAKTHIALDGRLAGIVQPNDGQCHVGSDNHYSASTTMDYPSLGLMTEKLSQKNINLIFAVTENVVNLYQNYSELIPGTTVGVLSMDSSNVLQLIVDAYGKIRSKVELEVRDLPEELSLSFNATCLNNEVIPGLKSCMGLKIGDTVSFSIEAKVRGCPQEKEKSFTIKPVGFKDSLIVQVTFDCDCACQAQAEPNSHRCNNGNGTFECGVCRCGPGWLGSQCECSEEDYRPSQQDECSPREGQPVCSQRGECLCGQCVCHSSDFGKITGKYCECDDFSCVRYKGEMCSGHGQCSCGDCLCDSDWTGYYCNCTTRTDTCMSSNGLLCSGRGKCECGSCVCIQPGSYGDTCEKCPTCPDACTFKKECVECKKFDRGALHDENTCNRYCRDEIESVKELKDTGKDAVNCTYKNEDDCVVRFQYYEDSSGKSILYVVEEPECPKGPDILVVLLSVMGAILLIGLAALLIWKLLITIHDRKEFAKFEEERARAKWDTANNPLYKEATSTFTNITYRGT

`CCCNC(=O)Nc1cccc(-c2ccc(OC[C@H](NS(=O)(=O)c3c(C)cc(C)cc3C)C(=O)O)cc2)c1` [Example 20, N-(Mesitylsulfonyl)-O-(3′-{[(propylamino)carbonyl]amino}-1,1′-biphenyl-4-yl)-L-serine] showed a Ki of 4 nM.
